Laboratory results: the supplement of paper PMC10307832

Key:
Assay in all cases: relative viability (nuclei count vs DMSO), 5 days (fraction); higher = more cells survive
201T = system: 201T
Outline: (§1)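 One day after seeding in 1536-well plates, lung cancer cell lines were dosed by pin tool. Dosing was either single-drug or a fixed anchor-drug dose plus five library-drug doses (not always all listed) in √10 steps. After 5 days, nuclei were stained in one fix-and-stain step and counted on 4× images, and relative viability is the nuclei count of treated wells over that of vehicle wells, given as the median of duplicate plates.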

ABC-1 = system: ABC-1
Outline: as §1

BEN = system: BEN
Outline: as §1

CAL-12T = system: CAL-12T
Outline: as §1

COR-L 105 = system: COR-L 105
Outline: as §1

COR-L23 = system: COR-L23
Outline: as §1

EKVX = system: EKVX
Outline: as §1

HARA = system: HARA
Outline: as §1

HCC-366 = system: HCC-366
Outline: as §1

LK-2 = system: LK-2
Outline: as §1

LU99A = system: LU99A
Outline: as §1

NCI-H1437 = system: NCI-H1437
Outline: as §1

NCI-H1650 = system: NCI-H1650
Outline: as §1

NCI-H1666 = system: NCI-H1666
Outline: as §1

NCI-H2009 = system: NCI-H2009
Outline: as §1

NCI-H2023 = system: NCI-H2023
Outline: as §1

NCI-H2170 = system: NCI-H2170
Outline: as §1

NCI-H3122 = system: NCI-H3122
Outline: as §1

NCI-H441 = system: NCI-H441
Outline: as §1

NCI-H661 = system: NCI-H661
Outline: as §1

NCI-H727 = system: NCI-H727
Outline: as §1

NCI-H838 = system: NCI-H838
Outline: as §1

PC-14 = system: PC-14
Outline: as §1

SW 900 = system: SW 900
Outline: as §1

C[C@@H]1CN(CC(=O)Nc2ccc3c(c2)Cc2cccc(-c4cc(=O)cc(N5CCOCC5)o4)c2S3)C[C@H](C)O1 + Cc1nc(Nc2ncc(C(=O)Nc3c(C)cccc3Cl)s2)cc(N2CCN(CCO)CC2)n1 [Dasatinib] (partner 0.075 µM)
relative viability (201T; first compound 0.04 µM): 0.624
relative viability (201T; first compound 0.1265 µM): 0.525
relative viability (201T; first compound 0.4 µM): 0.581
relative viability (201T; first compound 4 µM): 0.52
relative viability (ABC-1; first compound 0.1265 µM): 0.571
relative viability (ABC-1; first compound 0.4 µM): 0.447
relative viability (ABC-1; first compound 4 µM): 0.504
relative viability (BEN; first compound 0.04 µM): 0.308
relative viability (BEN; first compound 0.1265 µM): 0.265
relative viability (BEN; first compound 0.4 µM): 0.333
relative viability (BEN; first compound 4 µM): 0.377
relative viability (CAL-12T; first compound 0.04 µM): 0.515
relative viability (CAL-12T; first compound 0.1265 µM): 0.535
relative viability (CAL-12T; first compound 0.4 µM): 0.429
relative viability (CAL-12T; first compound 4 µM): 0.2
relative viability (COR-L 105; first compound 0.04 µM): 0.348
relative viability (COR-L 105; first compound 0.1265 µM): 0.413
relative viability (COR-L 105; first compound 0.4 µM): 0.383
relative viability (COR-L 105; first compound 4 µM): 0.336
relative viability (COR-L23; first compound 0.04 µM): 0.588
relative viability (COR-L23; first compound 0.1265 µM): 0.46
relative viability (COR-L23; first compound 0.4 µM): 0.593
relative viability (COR-L23; first compound 4 µM): 0.369
relative viability (EKVX; first compound 0.04 µM): 0.576
relative viability (EKVX; first compound 0.1265 µM): 0.568
relative viability (EKVX; first compound 0.4 µM): 0.603
relative viability (EKVX; first compound 4 µM): 0.475
relative viability (HARA; first compound 0.1265 µM): 0.204
relative viability (HARA; first compound 0.4 µM): 0.34
relative viability (HARA; first compound 4 µM): 0.258
relative viability (HCC-366; first compound 0.04 µM): 0.7
relative viability (HCC-366; first compound 0.1265 µM): 0.636
relative viability (HCC-366; first compound 0.4 µM): 0.427
relative viability (HCC-366; first compound 4 µM): 0.529
relative viability (LK-2; first compound 0.1265 µM): 0.301
relative viability (LK-2; first compound 0.4 µM): 0.336
relative viability (LK-2; first compound 4 µM): 0.437
relative viability (LU99A; first compound 0.04 µM): 0.523
relative viability (LU99A; first compound 0.1265 µM): 0.491
relative viability (LU99A; first compound 0.4 µM): 0.488
relative viability (LU99A; first compound 4 µM): 0.523
relative viability (NCI-H1437; first compound 0.04 µM): 0.334
relative viability (NCI-H1437; first compound 0.1265 µM): 0.34
relative viability (NCI-H1437; first compound 0.4 µM): 0.387
relative viability (NCI-H1437; first compound 4 µM): 0.359
relative viability (NCI-H1650; first compound 0.04 µM): 0.31
relative viability (NCI-H1650; first compound 0.1265 µM): 0.293
relative viability (NCI-H1650; first compound 0.4 µM): 0.301
relative viability (NCI-H1650; first compound 4 µM): 0.244
relative viability (NCI-H1666; first compound 0.04 µM): 0.831
relative viability (NCI-H1666; first compound 0.1265 µM): 0.805
relative viability (NCI-H1666; first compound 0.4 µM): 0.905
relative viability (NCI-H1666; first compound 4 µM): 0.788
relative viability (NCI-H2009; first compound 0.04 µM): 0.383
relative viability (NCI-H2009; first compound 0.1265 µM): 0.29
relative viability (NCI-H2009; first compound 0.4 µM): 0.305
relative viability (NCI-H2009; first compound 4 µM): 0.155
relative viability (NCI-H2023; first compound 0.04 µM): 0.638
relative viability (NCI-H2023; first compound 0.1265 µM): 0.512
relative viability (NCI-H2023; first compound 0.4 µM): 0.415
relative viability (NCI-H2023; first compound 4 µM): 0.342
relative viability (NCI-H2170; first compound 0.04 µM): 0.569
relative viability (NCI-H2170; first compound 0.1265 µM): 0.581
relative viability (NCI-H2170; first compound 0.4 µM): 0.711
relative viability (NCI-H2170; first compound 4 µM): 0.57
relative viability (NCI-H3122; first compound 0.04 µM): 0.797
relative viability (NCI-H3122; first compound 0.1265 µM): 0.838
relative viability (NCI-H3122; first compound 0.4 µM): 0.827
relative viability (NCI-H3122; first compound 4 µM): 0.844
relative viability (NCI-H441; first compound 0.04 µM): 0.762
relative viability (NCI-H441; first compound 0.1265 µM): 0.46
relative viability (NCI-H441; first compound 0.4 µM): 0.62
relative viability (NCI-H441; first compound 4 µM): 0.538
relative viability (NCI-H661; first compound 0.04 µM): 0.919
relative viability (NCI-H661; first compound 0.1265 µM): 0.881
relative viability (NCI-H661; first compound 0.4 µM): 0.968
relative viability (NCI-H661; first compound 4 µM): 0.797
relative viability (NCI-H727; first compound 0.04 µM): 0.361
relative viability (NCI-H727; first compound 0.1265 µM): 0.368
relative viability (NCI-H727; first compound 0.4 µM): 0.378
relative viability (NCI-H727; first compound 4 µM): 0.286
relative viability (NCI-H838; first compound 0.04 µM): 0.27
relative viability (NCI-H838; first compound 0.1265 µM): 0.233
relative viability (NCI-H838; first compound 0.4 µM): 0.221
relative viability (NCI-H838; first compound 4 µM): 0.188
relative viability (PC-14; first compound 0.04 µM): 0.286
relative viability (PC-14; first compound 0.1265 µM): 0.254
relative viability (PC-14; first compound 0.4 µM): 0.314
relative viability (PC-14; first compound 4 µM): 0.147
relative viability (SW 900; first compound 0.04 µM): 0.509
relative viability (SW 900; first compound 0.1265 µM): 0.801
relative viability (SW 900; first compound 0.4 µM): 0.66
relative viability (SW 900; first compound 4 µM): 0.375
